# Key:
# [1] = Storage stability of the free base; format: physicochemical; details: for long term storage stability: extended storage
# Solubility in water = format: physicochemical
# [2] = as described in U.S. Pat. Nos. 5,599,353 and 5,538,516; cited from earlier work
structure (smiles),measurement,setting,value
"CC(O)c1cc(N)ccc1N (stereo not drawn) [1-(2,5-Diaminophenyl)ethanol, 1-(2,5-diaminophenyl)ethanol]",stability in free base form compared with 2-(2-hydroxyethyl)-p-phenylenediamine,[1],significantly more stable
same,long term storage stability,[1],excellent
same,solubility in water,Solubility in water,excellent
same,sensitization potential compared with p-phenylenediamine,Sensitization potential,much less susceptible to cause sensitization
"Nc1ccc(N)c(CCO)c1 [2-(2-hydroxyethyl)-p-phenylenediamine, reference compound]",long term storage stability,[1],not sufficiently stable
Nc1ccc(N)cc1 [p-phenylenediamine],sensitization potential,[2],strong

# Source: patent US6342079B1, “Primary intermediate for use in oxidative hair dyeing” (Bristol-Myers Squibb Company, priority 2000, dated 2002)
